According to paper PMC7115756 (Journal of Medicinal Chemistry, 2020):
“Also recorded” adds a separate entry of the source.

Legend:
TTR/Aβ(1–42) complex = TTR/Aβ(1–42) complex (Homo sapiens, UniProt P02766); assay: ITC, ternary complex: [TTR + stabilizer] titrated with Aβ; format: binding; conditions: compared with TTR/Aβ(1–42) without stabilizer
TTR/Aβ(12–28) complex = TTR/Aβ(12–28) complex (Homo sapiens, UniProt P02766); assay: as above; format: binding; conditions: compared with TTR + Aβ(12–28) without stabilizer
mice model of AD = conditions: in vivo administration; cited from earlier work
TTR = TTR (Homo sapiens, UniProt P02766); assay: ITC, binary complex TTR + Aβ peptide; format: binding; conditions: thermograms of binary complexes; HEPES/glycine pH 7.4, 5% DMSO, 25 °C

O=C(O)c1cc(-c2ccc(F)cc2F)ccc1O [Diflunisal, 5-(2,4-difluorophenyl)-2-hydroxy-benzoic acid]
chaperoning effect on the TTR/Aβ(1–42) interaction (in words) (TTR/Aβ(1–42) complex): chaperoning effect could not be observed | effect of the stabilizer on the TTR/Aβ(12–28) complex (in words) (TTR/Aβ(12–28) complex; listed as diflunisal (1)): do not enhance the TTR/Aβ interaction; also recorded: negligible

O=C(O)c1cc(-c2ccc(F)cc2F)cc(I)c1O [IDIF, 2',4'-difluoro-4-hydroxy-5-iodo-1,1'-biphenyl-3-carboxylic acid]
effect in AD mice (brain Aβ, cognition) (mice model of AD): decrease in brain Aβ levels and deposition | chaperoning effect on the TTR/Aβ(1–42) interaction (in words) (TTR/Aβ(1–42) complex): cooperative effect | effect of the stabilizer on the TTR/Aβ(12–28) complex (in words) (TTR/Aβ(12–28) complex): stabilizing

O=C(O)c1ccc2nc(-c3cc(Cl)cc(Cl)c3)oc2c1 [Tafamidis, 2-(3,5-dichlorophenyl)-1,3-benzoxazole-6-carboxylic acid]
chaperoning effect on the TTR/Aβ(1–42) interaction (in words) (TTR/Aβ(1–42) complex; listed as Tafamidis (2)): negligible effect; also recorded: chaperoning effect could not be observed; also recorded: not detected | effect of the stabilizer on the TTR/Aβ(12–28) complex (in words) (TTR/Aβ(12–28) complex; listed as Tafamidis (2)): do not enhance the TTR/Aβ interaction; also recorded: negligible

DAEFR HDSGY E [Aβ(1–11) (5)]
interaction with TTR by ITC (in words) (TTR): no significant interaction

EDVG SNKGA IIGLM [Aβ(25–35) (8)]
interaction with TTR by ITC (in words) (TTR): no significant interaction

Y EVHHQ KLVFF [Aβ(10–20) (6)]
interaction with TTR by ITC (in words) (TTR): very low enthalpy change
